Laboratory results taken from US8399417B2, “Food” (Ajinomoto Co., Inc., priority 2007, dated 2013).

Legend:
Assay type in all cases: in vivo, human
[1] = Fat-like richness and smoothness imparted to low-fat yogurt, quantitative sensory evaluation test; details: Table 10; for Fat-like richness / Smoothness: n=12, control 0, strong 3, very strong 5 points
Protocol: (§1) The quantitative sensory evaluation test was performed as follows. Each of γ-Glu-Val-Gly and cinacalcet was mixed with commercially-available low-fat yogurt (non-fat milk solids content: 10.0%, milk fat content: 1.0%) at a concentration of 0.00001 to 1 g/dl, and the intensity of imparting fat-like richness was measured.
It should be noted that after each sample was dissolved in low-fat yogurt, and a sample, the pH of which was lowered, was adjusted with NaOH so that the pH might be ±0.2 with respect to the pH of the […] free of a sample.
(§2) The sensory score for fat-like richness and smoothness was defined as follows: control (free of sample): 0 point; strong: 3 points; and very strong: 5 points. Then, the test was performed with n=12.

[2] = Fat-like richness and smoothness imparted to low-fat milk, quantitative sensory evaluation test; details: for Taste profile / Fat-like richness / Smoothness: Table 8; for Fat-like richness / Smoothness: n=12, control 0, strong 3, very strong 5 points
Protocol: as §1, with “γ-Glu-Cys-Gly (glutathione), γ-Glu-Val-Gly,” for “γ-Glu-Val-Gly”, “γ-Glu-Abu-Gly” for “cinacalcet”, “milk” for “yogurt”, “8.6% or more,” for “10.0%,”, “1.5%)” for “1.0%)”
It should be noted that each peptide was dissolved in low-fat milk, and then a sample, the pH of which was lowered, was adjusted with NaOH so that the pH might be ±0.2 with respect to the pH of the low-fat milk free of peptide.
The sensory score for fat-like richness and smoothness was defined as follows: control (free of peptide): 0 point; strong: 3 points; and very strong: 5 points. Then, the test was performed with n=12. […] As clear from Table 6, it was confirmed that the peptide imparted fat-like richness and smoothness to low-fat milk at a lower concentration than glutathione.
as §1, with “milk” for “yogurt”, “8.6% or more,” for “10.0%,”, “1.5%)” for “1.0%)”
It should be noted that each sample was dissolved in low-fat milk, and then a sample, the pH of which was lowered, was adjusted with NaOH so that the pH might be ±0.2 with respect to the pH of the low-fat milk free of a sample.
as §2

[3] = Fat-like richness and smoothness imparted to low-calorie mayonnaise, quantitative sensory evaluation test; details: for Taste profile / Fat-like richness / Smoothness: Table 9; for Fat-like richness / Smoothness: control 0, strong 3, very strong 5 points
Protocol: In the same manner as that in Example 1 except that commercially-available low-calorie mayonnaise (having a fat content reduced by 50% compared with a normal product) was used instead of low-fat milk, each peptide was measured for its fat-like richness-imparting intensity.
In the same manner as that in Example 2, each sample was measured for its intensity of imparting fat-like richness.

[4] = 0.0001 g/dl in low-calorie mayonnaise
[5] = 0.001 g/dl in low-calorie mayonnaise

In the case of `C[C@@H](NCCCc1cccc(C(F)(F)F)c1)c1cccc2ccccc12` [Cinacalcet, (R)—N-(3-(3-(trifluoromethyl)phenyl)propyl)-1-(1-naphthyl)ethylamine, reference compound], the Taste profile ([1]; 0.0001 g/dl in low-fat yogurt) is reported as “Lasting is present in aftertaste”, the Fat-like richness ([1]; 0.0001 g/dl in low-fat yogurt) is reported as 1.5 points and the Smoothness ([1]; 0.0001 g/dl in low-fat yogurt) is reported as 2.0 points. The Fat-like richness ([1]; 0.001 g/dl in low-fat yogurt (milk fat 1.0%)) was 4.0 points, the Taste profile ([1]; 0.001 g/dl in low-fat yogurt) was “Lasting is present in aftertaste” and the Smoothness ([1]; 0.001 g/dl in low-fat yogurt) was 4.5 points. The Taste profile ([2]; 0.0001 g/dl in low-fat milk) was “Lasting is present in aftertaste”, the Fat-like richness ([2]; 0.0001 g/dl in low-fat milk) was 1.3 points and the Smoothness ([2]; 0.0001 g/dl in low-fat milk) was 1.7 points. The Taste profile ([2]; 0.001 g/dl in low-fat milk) was “Thickness and lasting”, the Fat-like richness ([2]; 0.001 g/dl in low-fat milk) was 4.0 points and the Smoothness ([2]; 0.001 g/dl in low-fat milk) was 4.2 points. For the same molecule, the “concentration at which fat-like richness and smoothness are imparted, compared with γ-Glu-Val-Gly” value ([2]; low-fat milk, conclusion from Table 8) was “comparable concentration to γ-Glu-Val-Gly”, the Taste profile [3, 4] was “Lasting is present in aftertaste” and the Fat-like richness [3, 4] was 1.8 points. The Smoothness [3, 4] was 2.5 points, the Taste profile [3, 5] was “Thickness and lasting” and the Fat-like richness [3, 5] was 4.3 points. For the same molecule, the Smoothness [3, 5] was 4.8 points and the “concentration at which fat-like richness and smoothness are imparted, compared with γ-Glu-Val-Gly” value ([3]; low-calorie mayonnaise, conclusion from Table 9) was “comparable concentration to γ-Glu-Val-Gly”.
